Measurements taken from patent US20060240037A1, “Methods and compositions for the treatment and prevention of degenerative joint disorders” (priority 2003, published 2006).
Where a name gives a salt, the structure may show the parent alone.

Test system: lubricin
Assay type: cell-based
Conditions: lubricin expression; primary human synovial fibroblasts; cells lysed after 48-72 hours; each supplement in 6 wells
Experimental: To identify substances having the ability to lubricate synovial joints, we first screened a library of substances for the ability to induce expression and secretion of endogenous lubricin in cultured synovial fibroblasts. A library of nutritional supplements containing 175 natural compounds was made using a natural compound collection. Each supplement was dissolved in water to an approximate concentration of 10 mM. 96-well daughter plates were made and plates were stored at −20° C.
Human synovial fibroblasts were plated the evening of the first day of the assay and grown overnight. In the morning of day 2, a supplement solution was added to each well of the 96-well plate. Each supplement was tested in 6 different wells to provide enough separate measurements to allow a statistical analysis of the results of the assay. After 48-72 hours, cells were lysed using a non-ionic detergent and supernatants containing cellular extracts were collected. Each supernatant was assayed for lubricin expression using any of the two methods described below.
We have developed two methods to measure the expression of lubricin, both of which are based on a sandwich assay. In the first sandwich assay, concanavilin A (a lectin) is used to capture lubricin while peanut agglutinin (a lectin) is used to detect proteins secreted by synovial fibroblasts. In contrast, the second assay relies on a rabbit polyclonal antibody for both the capture and detection of lubricin secreted by fibroblasts. In both assays, purified lubricin was used as a calibrator.
A substance that raised the level of measured lubricin in a significant manner when analyzed by t-test was considered a potentially efficacious substance useful for the present invention. All significant results were repeated in two additional experiments. […] In this regard, the 16 compounds that increased lubricin in the lectin-based assay were the same 16 compounds that increased lubricin levels in the antibody-based assay. […] Compounds that increase lubricin expression in synovial fibroblasts are indicated in Table 1 and the level of increase in lubricin expression is shown in Table 2 and FIG. 2.
Substances from the nutritional supplement library were screened for their ability to stimulate lubricin expression in primary human synovial fibroblasts. Cells were cultured in the presence or absence of each substance and lubricin expression was measured using the two detection assays discussed below.
In both assays, the cellular content of synovial cells was extracted as follows. Following the removal of culture media, cells were washed twice with D-PBS. Cells were first incubated in 500 μL of 1% Triton in D-PBS for five minutes and then mechanically disrupted using a pipette to ensure that all cells detach from the plates. The Triton solution containing the cells was transferred to an eppendorf and stored on ice. Samples were sonicated for three seconds and centrifuged for five minutes. The supernatant containing the cellular extracts was transferred to a fresh tube and tested for lubricin expression.

| Compound | Percent stimulation relative to untreated control Adjusted for background [%] |
| --- | --- |
| CSCC[C@H](N)C(=O)O [Compound G66, L-Methionine] | 234 |
| CCCCCCCCCCCCCCCCCCCCCCCCCCCCO [Compound G-5, Octacosanol] | 307 |
| O=c1c(O)c(-c2ccc(O)c(O)c2)oc2cc(O)cc(O)c12 [Compound G-15, Quercetin] | 118 |
| N[C@@H](CS)C(=O)O [Compound G-22, L-Cysteine] | 363 |
| Cc1ncc(C[n+]2csc(CCO)c2C)c(N)n1 [Compound G-27, Thiamin HCl] | 267 |
| CC(C)(CO)[C@@H](O)C(=O)NCCC(=O)O [Compound G-35, Pantothenic Acid] | 154 |
| C[C@]12CCC(=O)C=C1CC[C@@H]1[C@@H]2CC[C@]2(C)C(=O)CC[C@@H]12 [Compound G-57, Androstenedione] | 219 |
| Bromelain [Compound G126] | 75 |
